What was measured:
Assay type in all cases: cell-based
[1] = system: primary umbilical cord-derived mesenchymal stem cells; assay: Content of exosomal RNA (NanoDrop); settings: for Exosomal RNA, yield per 10^6 cells: then 72 h exosome-free FBS medium, non-treated 31.0
Protocol: (§1) In a culture medium [high glucose DMEM (Gibco, Cat no. 11995-065); 10% fetal bovine serum (HyClone), 1% MEM non-essential amino acids solution (100×) (Gibco, Cat no. 11140-050)] containing 20 nM of exendin-4, primary umbilical cord-derived mesenchymal stem cells (ATCC No. PCS-500-010; Lot No. 63822428) were cultured for one week.
(§2) After completion of culturing, the mesenchymal stem cells pretreated with exendin-4 were washed and additionally cultured for 72 hours in a culture medium supplemented with 10% fetal bovine serum (FBS) free of exosomes. The reason of employing exosome-free FBS was to prevent FBS-derived exosomes other than those secreted from the cells from being incorporated because generally used FBS contained a large amount of exosomes derived from bovine serum.
(§3) After 72 hours of culturing, the culture medium in which the pretreated mesenchymal stem cells were cultured was taken and centrifuged at 300×g for 10 min to remove residual cells and cell debris. The supernatant was filtered through a 0.22 μm filter, followed by centrifugation at 10,000×g and 4° C. for 70 min in a high-speed centrifuge. The supernatant thus obtained was subjected again to ultracentrifugation at 100,000×g and 4° C. for 90 min. The exosomes obtained as a pellet were diluted in PBS (phosphate buffered saline) before use in the following experiments.
(§4) In a culture medium [high glucose DMEM (Gibco, Cat no. 11995-065); 10% fetal bovine serum (HyClone), 1% MEM non-essential amino acids solution (100×) (Gibco, Cat no. 11140-050)] containing 10 nM of PMA, primary umbilical cord-derived mesenchymal stem cells (ATCC No. PCS-500-010; Lot No. 63822428) were cultured for one week.
(§5) After completion of culturing, the mesenchymal stem cells pretreated with PMA were washed and additionally cultured for 72 hours in a culture medium supplemented with 10% fetal bovine serum (FBS) free of exosomes. The reason of employing exosome-free FBS was to prevent FBS-derived exosomes other than those secreted from the cells from being incorporated because generally used FBS contained a large amount of exosomes derived from bovine serum.
(§6) In a culture medium [high glucose DMEM (Gibco, Cat no. 11995-065); 10% fetal bovine serum (HyClone), 1% MEM non-essential amino acids solution (100×) (Gibco, Cat no. 11140-050)] containing 10 ng/mL interferon-γ, primary umbilical cord-derived mesenchymal stem cells (ATCC No. PCS-500-010; Lot No. 63822428) were cultured for one week.
(§7) After completion of culturing, the mesenchymal stem cells pretreated with interferon-γ were washed and additionally cultured for 72 hours in a culture medium supplemented with 10% fetal bovine serum (FBS) free of exosomes. The reason of employing exosome-free FBS was to prevent FBS-derived exosomes other than those secreted from the cells from being incorporated because generally used FBS contained a large amount of exosomes derived from bovine serum.
(§8) In a culture medium [high glucose DMEM (Gibco, Cat no. 11995-065); 10% fetal bovine serum (HyClone), 1% MEM non-essential amino acids solution (100×) (Gibco, Cat no. 11140-050)] containing 10 μM of tetrandrine, primary umbilical cord-derived mesenchymal stem cells (ATCC No. PCS-500-010; Lot No. 63822428) were cultured for one week.
(§9) After completion of culturing, the mesenchymal stem cells pretreated with tetrandrine were washed and additionally cultured for 72 hours in a culture medium supplemented with 10% fetal bovine serum (FBS) free of exosomes. The reason of employing exosome-free FBS was to prevent FBS-derived exosomes other than those secreted from the cells from being incorporated because generally used FBS contained a large amount of exosomes derived from bovine serum. […]

[2] = system: primary umbilical cord-derived mesenchymal stem cells; assay: Content of exosomal protein (Bradford analysis, 595 nm); settings: for Exosomal protein, yield per 10^6 cells: then 72 h exosome-free FBS medium, non-treated 2.0
Protocol: as §1, §2, §3, §4, §5, §6, §7, §8, §9

[3] = system: primary umbilical cord-derived mesenchymal stem cells; assay: Stem cell stemness: colony formation (CFU-F, crystal violet) after pretreatment; settings: for colonies formed (each 50 or more cells): 1,000 cells/dish, 21 days, non-treated 28.6; for CFU-F increase: vs non-treated
Protocol: as §1, §4, §6, §8
(§10) In a culture medium [high glucose DMEM (Gibco, Cat no. 11995-065); 10% fetal bovine serum (HyClone), 1% MEM non-essential amino acids solution (100×) (Gibco, Cat no. 11140-050)] containing 10 μg/mL hyaluronic acid, primary umbilical cord-derived mesenchymal stem cells (ATCC No. PCS-500-010; Lot No. 63822428) were cultured for one week.
(§11) In a culture medium [high glucose DMEM (Gibco, Cat no. 11995-065); 10% fetal bovine serum (HyClone), 1% MEM non-essential amino acids solution (100×) (Gibco, Cat no. 11140-050)] containing 30 nM of substance P, primary umbilical cord-derived mesenchymal stem cells (ATCC No. PCS-500-010; Lot No. 63822428) were cultured for one week.
(§12) In a culture medium [high glucose DMEM (Gibco, Cat no. 11995-065); 10% fetal bovine serum (HyClone), 1% MEM non-essential amino acids solution (100×) (Gibco, Cat no. 11140-050)] containing 10 nM of resveratrol, primary umbilical cord-derived mesenchymal stem cells (ATCC No. PCS-500-010; Lot No. 63822428) were cultured for one week.
(§13) In a culture medium [high glucose DMEM (Gibco, Cat no. 11995-065); 10% fetal bovine serum (HyClone), 1% MEM non-essential amino acids solution (100×) (Gibco, Cat no. 11140-050)] containing 10 μM of lanifibranor, primary umbilical cord-derived mesenchymal stem cells (ATCC No. PCS-500-010; Lot No. 63822428) were cultured for one week.
Mesenchymal stem cells and the exendin-4-pretreated mesenchymal stem cells of the Example were each seeded at a density of 1,000 cells/dish into 100-mm cell culture dishes containing […] of a culture medium [high glucose DMEM (Gibco, Cat no. 11995-065), 10% fetal bovine serum (HyClone), 1% MEM non-essential amino acids solution (100×) (Gibco, Cat no. 11140-050)] per dish and cultured for 21 days. The cell-attached dishes were washed twice with PBS, followed by fixation with 95% methanol at room temperature for about 2 min. The fixed cells were washed three times with PBS and stained with 0.5% crystal violet [(sigma, C-3886, USA) […], methanol 100 ml] for 5 min. After water washing and drying at room temperature, colonies, each composed of 50 or more cells, were counted for comparison.
Mesenchymal stem cells and the PMA-pretreated mesenchymal stem cells of the Example were each seeded at a density of 1,000 cells/dish into 100-mm cell culture dishes containing […] of a culture medium [high glucose DMEM (Gibco, Cat no. 11995-065), 10% fetal bovine serum (HyClone), 1% MEM non-essential amino acids solution (100×) (Gibco, Cat no. 11140-050)] per dish and cultured for 21 days. The cell-attached dishes were washed twice with PBS, followed by fixation with 95% methanol at room temperature for about 2 min. […]

[4] = system: primary umbilical cord-derived mesenchymal stem cells; assay: Stem cell proliferation (CCK, absorbance 450 nm) after pretreatment; settings: 24 h culture, CCK 4 h
Protocol: as §1, §4, §6, §8, §10, §11, §12, §13
(§14) Mesenchymal stem cells and the exendin-4-pretreated mesenchymal stem cells of the Example were each seeded at a density of 3,000 cells/well into 96-well plates containing 100 μL of a culture medium [high glucose DMEM (Gibco, Cat no. 11995-065), 10% fetal bovine serum (HyClone), 1% MEM non-essential amino acids solution (100×) (Gibco, Cat no. 11140-050)] per well and cultured for 24 hours in a CO2 incubator. Then, CCK solution (10 μL/well) was added, and incubation was continued for 4 hours in the CO2 incubator, followed by reading absorbance at a wavelength of 450 nm (420-480 nm) to determine proliferation.
as §14, with “PMA-pretreated” for “exendin-4-pretreated”, “proliferation. […]” for “proliferation.”

[5] = system: primary umbilical cord-derived mesenchymal stem cells; assay: Number of exosomes by nanoparticle tracking assay (NanoSight NS300); settings: for No. of exosome particles, yield per 10^6 cells: then 72 h exosome-free FBS medium, non-treated 2.3
Protocol: as §1, §2, §3, §4, §5, §6, §7, §8, §9

[6] = 10 nM PMA pretreatment one week
[7] = 10 nM resveratrol pretreatment one week

SMILES: CCCCCCCCCCCCCC(=O)O[C@@H]1[C@@H](C)[C@@]2(O)[C@@H](C=C(CO)C[C@]3(O)C(=O)C(C)=C[C@@H]23)[C@@H]2C(C)(C)[C@]12OC(C)=O [PMA, phorbol 12-myristate 13-acetate]
- fold greater exosomal RNA than non-treated mesenchymal stem cells [1, 6]: about 4 fold
- Exosomal RNA, yield per 10^6 cells [1, 6]: 125.0 ng
- fold greater exosomal proteins than non-treated mesenchymal stem cells [2, 6]: about 5 fold
- Exosomal protein, yield per 10^6 cells [2, 6]: 10.0 ug
- colonies formed (each 50 or more cells) [3, 6]: 285.7 colonies
- CFU-F increase [3, 6]: about 996.5%
- increase in proliferation relative to non-treated mesenchymal stem cells [4, 6]: about 220%
- proliferation ratio relative to non-treated mesenchymal stem cells (1) [4, 6]: 2.2
- fold more exosomes than non-treated mesenchymal stem cells [5, 6]: about 5.2 fold
- No. of exosome particles, yield per 10^6 cells [5, 6]: 11.90 10^9

SMILES: Oc1ccc(C=Cc2cc(O)cc(O)c2)cc1 [resveratrol]
- fold greater exosomal RNA than non-treated mesenchymal stem cells [1, 7]: about 4.7 fold
- Exosomal RNA, yield per 10^6 cells [1, 7]: 145.15 ng
- fold greater exosomal proteins than non-treated mesenchymal stem cells [2, 7]: about 5.4 fold
- Exosomal protein, yield per 10^6 cells [2, 7]: 10.78 ug
- colonies formed (each 50 or more cells) [3, 7]: 311 colonies
- CFU-F increase [3, 7]: about 1,087%
- increase in proliferation relative to non-treated mesenchymal stem cells [4, 7]: about 322%
- proliferation ratio relative to non-treated mesenchymal stem cells (1) [4, 7]: 3.22
- fold more exosomes than non-treated mesenchymal stem cells [5, 7]: about 5.2 fold
- No. of exosome particles, yield per 10^6 cells [5, 7]: 11.9 10^9
